Measured values taken from patent US10160971B2, “Methods of modulating WARS2” (NATIONAL UNIVERSITY OF SINGAPORE, priority 2014, dated 2018).
Residues, ends and D or L forms follow the SMILES beside them. *: point of attachment. Cbz = O=C(OCc1ccccc1)*

How the values were obtained:
[1] = molecular target: T1, human mitochondrial WARS2 (Homo sapiens, UniProt Q9UGM6); assay: WARS2 AMP-Glo enzyme assay; assay type: biochemical; settings: indolmycin 10 micromolar; enzyme 200 nM; 37° C. one hour
T1 construct: GST (inferred from GSH-bead purification; made in house; own inference)
T1 sequence (Q9UGM6 19-360): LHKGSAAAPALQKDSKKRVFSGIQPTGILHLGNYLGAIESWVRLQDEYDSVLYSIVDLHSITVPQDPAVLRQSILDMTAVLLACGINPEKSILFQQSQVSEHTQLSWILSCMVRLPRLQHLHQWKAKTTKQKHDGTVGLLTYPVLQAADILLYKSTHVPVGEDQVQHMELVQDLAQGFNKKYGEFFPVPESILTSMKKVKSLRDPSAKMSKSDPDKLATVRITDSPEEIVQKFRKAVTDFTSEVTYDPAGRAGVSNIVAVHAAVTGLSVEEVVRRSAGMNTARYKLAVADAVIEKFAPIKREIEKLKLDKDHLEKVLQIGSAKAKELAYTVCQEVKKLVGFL
Protocol: (§1) The WARS and WARS2 enzyme assay was performed using an ATP depletion assay based on a chemilumines optimized with the AMP-Glo™ reagent (Promega) using 96-well format assay. Reaction buffer contained 25 mM Tris-HCL pH7.2, 10 mM MgCl2, 50 mM KCl, 2.5 mM dithiothreitol, 0.1 mg/mL bovine serum albumin, 0.2 mM spermine, 10 U/mL pyrophosphatase and enzyme concentration used was 200 nM. Substrate concentrations were as follows: L-tryptophan 100 μM, bulk E. coli tRNA (Sigma) 200 μg/mL and ATP 100 μM. Reaction was carried out at 37° C. for one hour, followed by adding reagent I (AMP-glo kit). The plate was incubated at room temperature for another hour. At the end of the hour the AMP detection solution was added to all the samples and incubated for one hour at room temperature. Data was collected by measuring the luminescence with the Infinite M200 microplate Reader (Tecan). Indolmycin was added at 10 micromolar concentration where indicated.

human cytosolic WARS = molecular target: T2, human cytosolic WARS (Homo sapiens, UniProt P23381); assay: WARS AMP-Glo enzyme assay; assay type: biochemical; settings: indolmycin 10 micromolar; enzyme 200 nM; 37° C. one hour
T2 sequence (P23381 1-471): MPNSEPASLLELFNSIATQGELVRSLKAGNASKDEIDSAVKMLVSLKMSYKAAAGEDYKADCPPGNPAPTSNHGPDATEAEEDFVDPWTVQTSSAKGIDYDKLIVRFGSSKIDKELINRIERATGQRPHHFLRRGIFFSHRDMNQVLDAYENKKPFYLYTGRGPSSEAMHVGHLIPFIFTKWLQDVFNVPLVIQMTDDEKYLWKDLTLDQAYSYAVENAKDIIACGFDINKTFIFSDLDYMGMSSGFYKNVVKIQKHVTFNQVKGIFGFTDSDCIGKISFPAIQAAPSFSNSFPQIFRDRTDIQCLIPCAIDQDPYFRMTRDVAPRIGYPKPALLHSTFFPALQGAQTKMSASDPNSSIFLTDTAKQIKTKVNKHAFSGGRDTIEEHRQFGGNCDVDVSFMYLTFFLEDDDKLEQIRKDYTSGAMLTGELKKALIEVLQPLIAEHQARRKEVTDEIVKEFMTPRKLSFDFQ
Protocol: as §1

WARS secretion = WARS secretion in HUVEC cell media; assay type: cell-based, human; settings: HUVEC cells
Protocol: Human embryonic kidney (HEK) 293 cells were maintained in DMEM supplemented with 10% foetal calf serum and 100 U/ml penicillin and 100 μg/ml streptomycin. Human umbilical vein endothelial (HUVEC) cells and medium (EBM- and EBM-2 single Quats) were purchased from Lonza and used prior to passage 7. For plasmid transfections (for HEK293), cells were seeded a day before at 70% confluence and lipofectamine […] (InvitroGene) transfection reagents were used according to the company's instruction. For HUVEC transfection, Polyplus jetPEI-HUVEC transfection reagent (POLYPLUS-TRANSFECTION Inc. New York) was used according to the company's instruction. For gene transfer, HUVEC were grown to 80% confluence in 6-well plates or T75 flasks. Transduction of cells was performed with a multiplicity of infection (MOI) of 200 plaque-forming units (pfu) in a total volume of 1 ml (6-well plates) or 10 ml (T75 flasks) in HUVEC growth medium. […]
HUVEC cells were seeded in 6-well plates. […] The knockdown efficacy could not be determined by western blot since no antibody against WARS2 can detect endogenous WARS2, although two anti-WARS2 antibodies we made can detect WARS2 in lysates from cells expressing WARS2-flag. […]

Wars2 = assay: In vivo knock down of Wars2 in rat eye using cholesterol modified siRNA; settings: F344 rats; 50 μg intravitreously; 48 hours; versus non-targeting siRNA in contralateral eye
Protocol: Both non-targeting (NT) siRNA and siWars2 were purchased from Dharmacon and formulated in the sterile siRNA buffer provided. Fifty (50) μg of siWars2 was injected intravitreously into one eye of each of three F344 rats in a total volume of 5 μl. The same dose of the NT control siRNA was injected into the contralateral eye of each animal. Retina and choroid were collected after 48 hours, and total RNA was extracted by Trizol (Ambion). cDNA was then synthesized according to the manufacturer's protocol (BioRad).
Real time PCR reactions to measure Wars2 expression were performed with the SYBRgreen mastermix (Qiagen) and normalized to GAPDH mRNA level by using the following primers: […]

[2] = test system: LASER-induced choroidal neovascularization (CNV); assay: Rat model of LASER-induced choroidal neovascularization (CNV); assay type: in vivo; settings: Brown Norway rats; bilateral intravitreal injection Day 3 (siRNA 100 μg/eye, Ab 5 μg/eye); fluorescein angiography Day 22
Protocol: Non-targeting siRNA (negative control), Wars2 siRNA (test agent), and anti-VEGF Ab (positive control) were administered intravitreously into the eyes of Brown Norway female rats aged 6-8 weeks, according to the following design: • Day 1: Bilateral Laser treatment to produce three (3) lesions per eye • Day 3: Bilateral intravitreal injection of negative control, positive control, or test agent • Day 22: In-vivo fluorescein angiography • Day 22: Enucleation of eyes and fixation for future histological analyses • Three (3) groups of five (5) rats were used, as set out in Table 4.
Animals were dilated with 1% Cyclogyl solution and protected from light. Following observable dilation, the animals were sedated with ketamine/xylazine. The fundus of sedated animals was observed and recorded using a Micron III small animal funduscope (Phoenix Research). Laser treatments were performed using a thermal laser which was connected through the Micron III custom laser attachment. […] The resultant fundus images were recorded and evaluated to confirm that the laser had successfully produced a bubble through the Bruch's membrane. […]
All TIFF images were quantified using computerized image-analysis software (ImageJ, NIH, USA). Lesions were then individually traced free-hand in order to quantify the area in pixels and the colour fundus photos were used as a reference for lesion location. […]

human WARS2 mRNA = assay: siWARS2 knock down in HEK 293 (QPCR); assay type: cell-based; settings: non targeting control = 1; for WARS2 mRNA expression, Experiment 1 / WARS2 mRNA expression, Experiment 2 / WARS2 mRNA expression, Experiment 3 / WARS2 mRNA expression, Experiment 4 / WARS2 mRNA expression, Experiment 5: 120 nM siRNA, QPCR normalized to GAPDH (ddCt); for WARS2 mRNA expression, Average: average of 5 experiments
Protocol: HEK cells were seeded the day before transfection on 10 cm dish. At a density of ˜50%, transfection was performed using RNAimax (manufacturer's protocol). siRNA was prepared by using a mixture of 120 nM siRNA and 20 μl lipofectamin RNAimax in 1 ml OPTIMEM. Cells were incubated, washed 1× with PBS, and then covered with 5 ml OPTIMEM and the lipofectamin/siRNA mixture added dropwise. Cells were incubated (6 h) and media then changed to (DMEM/10% FBS). RNA was extracted as per protocol (Qiagen). RNA quantification was assessed using Nanodrop and the quality was determined based on OD ratio 260 nm/280 nm. Reverse transcription was performed using 1 μg RNA (Biorad iScript™ cDNA synthesis protocol) and QPCR performed using the QuantiFAST SYBR green protocol.
All samples were analyzed in duplicates and the mean and standard deviation were determined. Specificity of the amplification was determined by a melting curve ranging from 60-95° C. Normalization to GAPDH was performed using the standard ddCt method.

RPL14a = assay: Loss of RPL14a on WARS2 over-expression, reversal by proteasome inhibitor; assay type: cell-based
Protocol: Cells were lysed in cell lysis buffer (9803, Cell Signaling) containing protease inhibitor (Sigma) and phosphatase inhibitor (Halt Phosphase inhibitor Cocktail, Thermo Scientific) and PMSF (0.5 mM Active Motif). Cell lysate was then briefly sonicated and centrifuged for 10 minutes at 14,000 g (4° C.). Supernatants were retained and protein concentrations were determined using the bicinchoninic acid assay with bovine serum albumin standards. Protein samples (20 μg) were separated on 10% or 13% SDS-polyacrylamide gels, transferred to nitrocellulose membranes, and probed with antibodies as described in the figure legends. Immunoreactive bands were visualized with a horseradish peroxidase-conjugated secondary antibody using Peroxide and LumiGlo reagents (Cell Signaling).

Row | Molecule | WARS2 mRNA expression, Experiment 1 (human WARS2 mRNA) | WARS2 mRNA expression, Experiment 2 (human WARS2 mRNA) | WARS2 mRNA expression, Experiment 3 (human WARS2 mRNA) | WARS2 mRNA expression, Experiment 4 (human WARS2 mRNA) | WARS2 mRNA expression, Experiment 5 (human WARS2 mRNA) | WARS2 mRNA expression, Average (human WARS2 mRNA) | further results
1 | CN=C1NC(=O)[C@H]([C@H](C)c2c[nH]c3ccccc23)O1 [indolmycin] |  |  |  |  |  |  | inhibition of WARS2 enzyme activity [1]: inhibited human mitochondrial WARS2; inhibition of WARS enzyme activity (human cytosolic WARS): not human cytosolic WARS activity
2 | C[C@H]1CCC/C=C/[C@@H]2C[C@H](O)C[C@H]2[C@H](O)/C=C/C(=O)O1 [brefeldin A] |  |  |  |  |  |  | WARS secretion in presence of inhibitor of golgi-mediated secretion (WARS secretion): No effect
3 | Wars2 siRNA: Rat Wars2 siRNA from Dharmacon: sense 5′-GCUCCAAUCAGAAGUGAUU-3′ (SEQ ID NO: 48), antisense 5′-UCACUUCUGAUUGGAGCUU-3′ (SEQ ID NO: 49) (cholesterol-modified siRNA, position of cholesterol not given here) |  |  |  |  |  |  | Wars2 expression in retina and choroid (Wars2): greater inhibition of Wars2 expression; extent of neovascularization [2]: significant reduction in the extent of neovascularization
4 | siRNA 3: Sense 5′-GCUGGACAAGGACCAUUUA-3′ (SEQ ID NO: 54), antisense 5′-UAAAUGGUCCUUGUCCAGC-3′ (SEQ ID NO: 55) (listed as RNA, chemistry not given here) | 0.43 | 0.22 | 0.43 | 0.37 | 0.30 | 0.35 | 
5 | CC(C)C[C@@H](C=O)NC(=O)[C@H](CC(C)C)NC(=O)[C@H](CC(C)C)NC(=O)OCc1ccccc1 [MG132] (Cbz-Leu-Leu-Leu-aldehyde) |  |  |  |  |  |  | loss of RPL14a caused by over-expression of WARS2 (RPL14a): reversed
6 | siRNA 2: Sense 5′-CCGACAUUCUGUUGUACAA-3′ (SEQ ID NO: 52), antisense 5′-UUGUACAACAGAAUGUCGG-3′ (SEQ ID NO: 53) (listed as RNA, chemistry not given here) | 0.47 | 0.14 | 0.13 | 0.11 | 0.09 | 0.19 | 
7 | siRNA 1: Sense 5′-GCAUUCAACCUACAGGAAU-3′ (SEQ ID NO: 50), antisense 5′-AUUCCUGUAGGUUGAAUGC-3′ (SEQ ID NO: 51) (listed as RNA, chemistry not given here) | 0.26 | 0.13 | 0.18 | 0.13 | 0.14 | 0.17 | 
